In patent US4307100A (priority 1978, dated 1981):

Columns and labels:
[1] = system: tubulin; assay: Inhibition of the polymerisation of tubulin (UV, 350 nm); type: biochemical, pigs; details: for I50/I50 vinblastine: tartrates, tubulin concentration ~ 2 mg/ml, ratio to vinblastine
Source text: (§1) The receiver of anti-tumoral indolic alkaloids of the vinblastine type is tubulin.
(§2) It is readily extracted from pigs' brains where it preresents 10% of the soluble proteins.
(§3) The polymerisation of tubulin into microtubules may readily be followed by means of a UV spectrophotometer observing at 350 nm. The maximum polymerisation velocity is thus determined; it is reduced by the addition of inhibitors of the vinblastine type and a concentration, I50, reducing the polymerisation velocity by half is obtained for each substance tested. A second effect of these products is taken into consideration: with higher doses, after complete inhibition of polymerisation, spiralisation of the tubulin is observed (verified by electron microscopy) and a new concentration, S50, corresponding to the appearance of 50% of the phenomenon is determined.
(§4) The results of each product are always compared with those of the vinblastine used as reference.
(§5) The results of the interaction tests with
(§6) tubulin carried out on the tartrates are summarised
(§7) in the following Table (tubulin concentration
(a) I50 : concentration of the product inhibiting 50% of the velocit
of polymerisation of the tubulin. I50 vinblastine = 2,10^-6.

[2] = system: tubulin; assay: Spiralisation of tubulin (S50); type: biochemical, pigs; details: for S50/S50 vinblastine: tartrates, tubulin concentration ~ 2 mg/ml, ratio to vinblastine
Source text: as §1, §2, §3, §4, §5, §6, §7
(b) S50 : concentration of the product required for inducing 50% of
the maximum spiralisation of the tubulin.

[3] = comparison value, cited from earlier work; for DL50: i.v.
[4] = system: P388 leukaemia; assay: Activity in the P388 leukaemia test on mice; type: in vivo, mice (DBA/2 female); details: tartrate; for ratio of T and C (formula drawing 15): C = average life of treated, control group; for Mean survival period: control 10.5 ± 0.8
Protocol: Table II below exemplifies the results obtained with the compound of Example 1 in the form of its tartrate in the treatment of P388 leukaemia.
T=average life (in days) of the mice of the treated group
C=average life (in days) of the mice of the control group
Graft: P 388 (10^6 cell./mice ip)
(§8) Graft→treatment interval: 24 h.

[5] = system: L1210 leukaemia; assay: Activity in the L1210 leukaemia test on mice; type: in vivo, mice (DBA/2 female); details: tartrate
Protocol: Table III below summarises the results obtained with the compound of Example 1 in the form of its tartrate in the treatment of L1210 leukaemia:
as §8
Conc. 0.5 and 1 mg/ml in physiological serum.

[6] = Toxicity of the product of Example 1 in tartrate form, single dose, mortality over 35 days; type: in vivo, DBA/2 female mice; details: for Distribution of mortality, 1: column 1 (day); for Distribution of mortality, 6: column 6 (day); for Distribution of mortality, 3: column 3 (day)
Source text: A single dose of the test product is intraperitoneally administered to DBA/2 .female. mice and the mortality rate studied over a period of 35 days.

[7] = system: leukaemia studied; assay: Leukaemia tests on mice, overall conclusion; type: in vivo; details: in words, compared with vincristine and vinblastine
Source text: (2) Activity in the P388 leukaemia test on mice
(3) Activity in the L1210 leukaemia test on mice

CCC1=C[C@@H]2CN(C1)Cc1c([nH]c3ccccc13)[C@@](C(=O)OC)(c1cc3c(cc1OC)N(C=O)[C@H]1[C@@](O)(C(=O)OC)[C@H](OC(C)=O)[C@]4(CC)C=CCN5CC[C@]31[C@@H]54)C2 [5'-noranhydrovincristine]
I50/I50 vinblastine [1]: 0.8
S50/S50 vinblastine [2]: 0.66

CCC12CN3Cc4c([nH]c5ccccc45)[C@@](C(=O)OC)(c4cc5c(cc4OC)N(C)[C@H]4[C@@](O)(C(=O)OC)[C@H](OC(C)=O)[C@]6(CC)C=CCN7CC[C@]54[C@@H]76)C[C@@H](C3)C1O2 (stereo partly shown) [5'-norleurosine]
I50/I50 vinblastine [1]: 1.0
S50/S50 vinblastine [2]: 3

CCC1=C[C@@H]2CN(CCc3c([nH]c4ccccc34)[C@@](C(=O)OC)(c3cc4c(cc3OC)N(C=O)[C@H]3[C@@](O)(C(=O)OC)[C@H](OC(C)=O)[C@]5(CC)C=CCN6CC[C@]43[C@@H]65)C2)C1 [anhydrovincristine, reference compound]
I50/I50 vinblastine [1]: 1.8
S50/S50 vinblastine [2]: 1.5

CC[C@]1(O)C[C@@H]2CN(CCc3c([nH]c4ccccc34)[C@@](C(=O)OC)(c3cc4c(cc3OC)N(C)[C@H]3[C@@](O)(C(=O)OC)[C@H](OC(C)=O)[C@]5(CC)C=CCN6CC[C@]43[C@@H]65)C2)C1 [vinblastine, reference compound]
DL50 [3]: 17 mg/kg

CCC12CN3Cc4c([nH]c5ccccc45)[C@@](C(=O)OC)(c4cc5c(cc4OC)N(C=O)[C@H]4[C@@](O)(C(=O)OC)[C@H](OC(C)=O)[C@]6(CC)C=CCN7CC[C@]54[C@@H]76)C[C@@H](C3)C1O2 (stereo partly shown) [5'-nor-Na-desmethyl Na-formyl leurosine]
I50/I50 vinblastine [1]: 2.77
S50/S50 vinblastine [2]: 2.5

CCC1=C[C@@H]2CN(C1)Cc1c([nH]c3ccccc13)[C@@](C(=O)OC)(c1cc3c(cc1OC)N(C)[C@H]1[C@@](O)(C(=O)OC)[C@H](OC(C)=O)[C@]4(CC)C=CCN5CC[C@]31[C@@H]54)C2 [5'-noranhydrovinblastine]
I.L.S. (formula drawing 14) ([4]; 5 mg/kg i.p.): 29.5
ratio of T and C (formula drawing 15) ([4]; 5 mg/kg i.p.): 129.5
Mean survival period ([4]; 5 mg/kg i.p.): 13.6 ± 0.8 days
I.L.S. (formula drawing 14) ([4]; 10 mg/kg i.p.): 70.5
ratio of T and C (formula drawing 15) ([4]; 10 mg/kg i.p.): 170.5
Mean survival period ([4]; 10 mg/kg i.p.): 17.9 ± 0.9 days
I.L.S. (formula drawing 14) ([4]; 25 mg/kg i.p.): ≥ 131.4
ratio of T and C (formula drawing 15) ([4]; 25 mg/kg i.p.): ≥ 231.4
Mean survival period ([4]; 25 mg/kg i.p.): ≥ 24.3 days
activity in regard to the inhibition of polymerisation ([1]; in words, compared with vinblastine): activity similar to vinblastine
I50/I50 vinblastine [1]: 0.7
I.L.S. (formula drawing 16) ([5]; 5 mg/kg i.p.): 40
ratio (formula drawing 17) ([5]; 5 mg/kg i.p.): 140
Mean survival period ([5]; 5 mg/kg i.p., control 8.6 ± 0.4): 12.0 ± 0.9 days
I.L.S. (formula drawing 16) ([5]; 10 mg/kg i.p., first line): 57
Mean survival period ([5]; 10 mg/kg i.p., first line, control 8.6 ± 0.4): 13.5 ± 0.9 days
ratio (formula drawing 17) ([5]; 10 mg/kg i.p., first value): 157
I.L.S. (formula drawing 16) ([5]; 10 mg/kg i.p., second line): 50
Mean survival period ([5]; 10 mg/kg i.p., second line, control 8.6 ± 0.7): 12.9 ± 1.3 days
ratio (formula drawing 17) ([5]; 10 mg/kg i.p., second value): 150
I.L.S. (formula drawing 16) ([5]; 25 mg/kg i.p., first line): 65
Mean survival period ([5]; 25 mg/kg i.p., first line, control 8.6 ± 0.4): 14.2 days
ratio (formula drawing 17) ([5]; 25 mg/kg i.p., first value): 165
I.L.S. (formula drawing 16) ([5]; 25 mg/kg i.p., second line): 57
Mean survival period ([5]; 25 mg/kg i.p., second line, control 8.6 ± 0.7): 13.5 days
ratio (formula drawing 17) ([5]; 25 mg/kg i.p., second value): 157
"spiralising" activity ([2]; in words): does not have any "spiralising" activity
S50/S50 vinblastine [2]: 0.8-1.0
Distribution of mortality, 1 ([6]; 50 mg/kg i.p.): 1
Distribution of mortality, 4 ([6]; 50 mg/kg i.p., column 4 (day)): 1
Distribution of mortality, 6 ([6]; 50 mg/kg i.p.): 1
Distribution of mortality, 9 ([6]; 50 mg/kg i.p., column 9 (day)): 1
Mortality over 35 days ([6]; 50 mg/kg single i.p. dose, tartrate, 5 mice): 4/5
Distribution of mortality, 1 ([6]; 75 mg/kg i.p.): 3
Distribution of mortality, 3 ([6]; 75 mg/kg i.p.): 1
Distribution of mortality, 6 ([6]; 75 mg/kg i.p.): 1
Distribution of mortality, 3 ([6]; 100 mg/kg i.p.): 3
Mortality over 35 days ([6]; 100 mg/kg single i.p. dose, tartrate, 3 mice): 3/3
toxicity compared with vincristine and vinblastine ([6]; in words): far less toxic
mortality at 840 h ([6]; mouse, in vivo, ip, 25 mg/kg single i.p. dose, tartrate, 5 mice): 0%
DL0 ([6]; single i.p. dose, tartrate, DBA/2 female mice, 35 days): 25 mg/kg
activity on the leukaemia studied [7]: more active than vincristine and vinblastine

CCC1=C[C@@H]2CN(C1)Cc1c([nH]c3ccccc13)[C@@](C(=O)OC)(c1cc3c(c(Cl)c1OC)N(C)[C@H]1[C@@](O)(C(=O)OC)[C@H](OC(C)=O)[C@]4(CC)C=CCN5CC[C@]31[C@@H]54)C2 [12-chloro-5'-noranhydrovinblastine]
I50/I50 vinblastine [1]: 13

CC[C@]1(O)C[C@H]2CN(CCc3c([nH]c4ccccc34)[C@@](C(=O)OC)(c3cc4c(cc3OC)N(C=O)[C@H]3[C@@](O)(C(=O)OC)[C@H](OC(C)=O)[C@]5(CC)C=CCN6CC[C@]43[C@@H]65)C2)C1 [vincristine]
DL10 ([3]; route not given): 3 mg/kg
DL50 [3]: 2 mg/kg
